This note sets out measurements from US20220409629A1, “BENZODIAZEPINE DERIVATIVES FOR TREATING A RESPIRATORY SYNCYTIAL VIRUS (RSV) INFECTION” (priority 2019, published 2022).

What is called CC50 is the concentration giving 50% cytotoxicity. What is called Vd is a proportionality between amount in the body and measured concentration, not a real space. A high value points to wide distribution into tissue. Usually clearance stands for a measure of how efficiently the substance is removed, as volume per time. For orientation: bioavailability means the share of a dose that reaches the circulation, judged against a reference dose that is usually intravenous. High values mean good availability, low ones poor availability. One may read the Cmax as the peak of the concentration-time curve. The term EC50 denotes the concentration giving half of the maximal effect. A high value points to weaker potency.

The nature of data set [1]: Liver microsomal stability, dog. Type of data set: in vitro ADME. As to conditions: pH 7.4; dog liver microsomes, 0.5 mg/mL protein, 1 μM compound, NADPH; >80% remaining at 45 min denoted >140; read-out: Liver Microsomal Stability: t1/2 (min); dog. An outline of the steps:
(§1)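 Pooled liver microsomes (0.5 mg/mL protein) in 0.1 M phosphate pH 7.4 with 1 μM compound (0.25% DMSO), started with 1 mM NADPH at 37° C; sampled 0-45 min, minus-NADPH control 45 min. LC-MS/MS depletion slope gave t1/2 and CLint.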

A short description of a further data set: Cell cytotoxicity CC50. The data set is classed as cell-based. The settings on record: human; mean of at least two experiments.
Data set [2] is described as follows: Liver microsomal stability, rat. The data set is classed as in vitro ADME. The settings on record: pH 7.4; rat liver microsomes, 0.5 mg/mL protein, 1 μM compound, NADPH; >80% remaining at 45 min denoted >140; read-out: Liver Microsomal Stability: t1/2 (min); rat. The method, boiled down:
as §1
In general terms: Microsomes from liver hold many membrane-bound enzymes, among them those of drug oxidation.

Data set [3] in a line: Liver hepatocyte stability, rat. The data set is classed as in vitro ADME. The settings on record: rat hepatocytes, 3 μM compound, 60 min, >80% remaining at 60 min denoted >186, read-out: Liver Hepatocyte Stability: t1/2 (min). How it is done:
(§2) Cryopreserved pooled hepatocytes were purchased from a reputable commercial supplier and stored in liquid nitrogen prior to use. Williams E media supplemented with 2 mM L-glutamine and 25 mM HEPES and test compound (final substrate concentration 3 μM; final DMSO concentration 0.25%) are pre-incubated at 37° C. prior to the addition of a suspension of cryopreserved hepatocytes (final cell density 0.5×10^6 viable cells/mL in Williams E media supplemented with 2 mM L-glutamine and 25 mM HEPES) to initiate the reaction. The final incubation volume is 500 μL. Two control compounds were included with each species, alongside appropriate vehicle control. The reactions are stopped by transferring 50 μL of incubate to 100 μL acetonitrile containing internal standard at the appropriate time points. Samples were removed at 6 time points (0, 5, 15, 30, 45 and 60 min) over the course of a 60 min experiment. The termination plates are centrifuged at 2500 rpm at 4° C. for 30 min to precipitate the protein. Following protein precipitation, the sample supernatants were combined in cassettes of up to 4 compounds and analysed using generic LC-MS/MS conditions. From a plot of ln peak area ratio (compound peak area/internal standard peak area) against time, the gradient of the line is determined. Subsequently, half-life (t1/2) and intrinsic clearance (CLint) were calculated.

Data set [4] is described as follows: Rat pharmacokinetics in vivo. As to conditions: male Sprague Dawley rats; for C 8 h / Cmax: doses 1 mg/kg (IV) and 10 mg/kg (PO); for Vd / clearance / bioavailability / half-life / AUC(0-t) / Cmax: rat, in vivo; for AUC(0-t): read-out: PO AUClast. The procedure: The pharmacokinetics of compounds were studied in vivo in rats at doses of 1 mg/kg (IV) and 10 mg/kg (PO).
Male rats (Sprague Dawley) surgically prepared with a jugular vein cannula were treated with experimental compounds via intravenous administration (IV; n=3; 1 mg/kg) or oral administration (PO; n=3; 10 mg/kg). Compounds were formulated as a solution in 40:60 dimethylacetamide:saline (IV administration), a suspension in 1% methyl cellulose (viscosity: 15 cP), 0.1% Tween80 in water (PO administration: Example 3), a solution in 10% DMSO/10% Cremaphor/80% water (PO administration: Examples 4, 11, 21, 23, 25, 26, 32) or a solution in 10% DMSO/20% Cremaphor/70% water (PO administration: Examples 19, 20, 22, 24, 30). […] Serial blood samples were collected via the cannula at 0.02, 0.08, 0.25, 0.5, 1, 2, 4, 6, 8 and 24 h post IV dosing of compound, and at 0.08, 0.25, 0.5, 1, 2, 4, 6, 8 and 24 h post oral dosing of compound, and plasma was prepared by centrifugation and stored immediately at −80° C. Samples were subsequently thawed, prepared for analysis by protein precipitation with acetonitrile, and analysed by tandem LCMS using electrospray ionisation using a matrix-matched calibration curve. PK parameters were calculated from the resulting data.

Data set [5] is described as follows: Liver hepatocyte stability, human. The data set is classed as in vitro ADME. As to conditions: human hepatocytes, 3 μM compound, 60 min, >80% remaining at 60 min denoted >186, read-out: Liver Hepatocyte Stability: t1/2 (min). How it is done: as §2
The nature of data set [6]: Liver hepatocyte stability, dog. Type of data set: in vitro ADME. The settings on record: dog hepatocytes, 3 μM compound, 60 min, >80% remaining at 60 min denoted >186, read-out: Liver Hepatocyte Stability: t1/2 (min). The procedure:
as §2

A short description of data set [7]: Liver microsomal stability, human. Type of data set: in vitro ADME. As to conditions: pH 7.4; human liver microsomes, 0.5 mg/mL protein, 1 μM compound, NADPH; >80% remaining at 45 min denoted >140; read-out: Liver Microsomal Stability: t1/2 (min); human. An outline of the steps:
as §1

For another data set, the system named is RSV A2. Briefly: RSV plaque reduction assay. The data set is classed as cell-based, respiratory syncytial virus (RSV). As to conditions: human respiratory syncytial virus, HepG2; Hep-G2 cells, RSV A2, mean of at least two experiments. The method, boiled down:
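RSV A2 (100 PFU/well) premixed with eight serial compound dilutions, added to confluent Hep-G2 monolayers for 2 h at 37° C, then held 2 days under CMC overlay containing compound (DMEM, 2% FBS). Plaques immunostained (HRP/TrueBlue) and counted; EC50 is 50% reduction versus virus control from 4-parameter fit, mean of ≥2 experiments.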

Where [8] appears, read: IV 1 mg/kg, read-out: IV t½ (converted).
Where [9] appears, read: PO 10 mg/kg, read-out: PO t½ (converted).

SMILES strings stand for the structures.

As to `CCn1ncc(C(=O)N[C@H]2N=C(c3ccccc3)c3cccc(F)c3NC2=O)c1-c1ccc(NC2CC2)nc1F` [Example 11, 5-[6-(Cyclopropylamino)-2-fluoropyridin-3-yl]-1-ethyl-N-[(3S)-9-fluoro-2-oxo-5-phenyl-1,3-dihydro-1,4-benzodiazepin-3-yl]pyrazole-4-carboxamide], the half-life in [1] is 24 min; in data set [2], 76.3 min; in data set [3], 151 min; in data set [4] (setting [8]), 192 min; in [4] (setting [9]), 132 min; in data set [5], 194 min. In addition, the half-life stood at 48.2 min in data set [6] and 82.4 min in [7]. The same compound had a CC50 in the data set “Cell cytotoxicity CC50” above 25 µM. Further, the “C 8 h” value in data set [4] came out at 673 ng/mL. Also, in [4] (IV 1 mg/kg), the distribution volume (Vd) came out at 2 L/kg. Also, the clearance in data set [4] (IV 1 mg/kg) is 13.9 mL/min/kg. The compound also displayed a bioavailability in [4] (IV 1 mg/kg, PO 10 mg/kg) of 93%. Also, the AUC(0-t) in [4] (PO 10 mg/kg) amounted to 11200 ng·h/mL. Also, the Cmax in data set [4] was 984 ng/mL. The compound further gave an EC50 with RSV A2 of 62 nM.

As to `O=C(N[C@H]1N=C(c2ccccc2)c2cccc(F)c2NC1=O)c1cnn(C2COC2)c1-c1ccc(NC2CC2)nc1F` [Example 19, 5-[6-(Cyclopropylamino)-2-fluoropyridin-3-yl]-1-(oxetan-3-yl)-N-[(3S)-9-fluoro-2-oxo-5-phenyl-1,3-dihydro-1,4-benzodiazepin-3-yl]pyrazole-4-carboxamide], the half-life was 90.8 min in data set [1]; above 140 min in [2]; 185 min in data set [3]; 102 min in data set [4] (setting [8]); 180 min in data set [4] (setting [9]); above 186 min in [5]. The half-life was 72.2 min in data set [6] and 154 min in [7]. In “Cell cytotoxicity CC50”, this compound had a CC50 above 25 µM. Further, the “C 8 h” value in data set [4] worked out at 315 ng/mL. In data set [4] (IV 1 mg/kg), this compound displayed a Vd of 1.6 L/kg. Also, the clearance in data set [4] (IV 1 mg/kg) is 14.3 mL/min/kg. The same compound came in with a bioavailability in data set [4] (IV 1 mg/kg, PO 10 mg/kg) of 64.6%. For the same compound, the AUC(0-t) in data set [4] (PO 10 mg/kg) came to 7290 ng·h/mL. In data set [4], this compound yielded a Cmax of 1320 ng/mL. Moreover, the EC50 with RSV A2 turned out to be 37 nM.

For `O=C(N[C@H]1N=C(c2ccccc2)c2ccccc2NC1=O)c1cnn(C2CCOCC2)c1-c1ccc(NC2CC2)nc1F` [Example 20, 5-[6-(Cyclopropylamino)-2-fluoropyridin-3-yl]-N-[(3S)-2-oxo-5-phenyl-1,3-dihydro-1,4-benzodiazepin-3-yl]-1-(oxan-4-yl)pyrazole-4-carboxamide], the half-life is 325 min in data set [1]; 116 min in [2]; 115 min in data set [3]; 90 min in [4] (setting [8]); 84 min in data set [4] (setting [9]); 190 min in data set [5]. The half-life is above 186 min in [6] and 83.1 min in data set [7]. In the data set “Cell cytotoxicity CC50”, the CC50 was above 25 µM. For the same compound, the “C 8 h” value in [4] is 25.7 ng/mL. For the same compound, the Vd in [4] (IV 1 mg/kg) worked out at 2.9 L/kg. In [4] (IV 1 mg/kg), this compound gave a clearance of 32.9 mL/min/kg. The same compound displayed a bioavailability in data set [4] (IV 1 mg/kg, PO 10 mg/kg) of 23.9%. In data set [4] (PO 10 mg/kg), the AUC(0-t) was 1170 ng·h/mL. Also, the Cmax in data set [4] came to 258 ng/mL. In addition, a half-maximal response with RSV A2 (EC50) required 59 nM.

As for `CC(C)Nc1ccc(-c2c(C(=O)N[C@H]3N=C(c4ccccc4)c4ccccc4NC3=O)cnn2C2CCOCC2)c(F)n1` [Example 23, 5-[2-Fluoro-6-(propan-2-ylamino)pyridin-3-yl]-1-(oxan-4-yl)-N-[(3S)-2-oxo-5-phenyl-1,3-dihydro-1,4-benzodiazepin-3-yl]pyrazole-4-carboxamide], in “Cell cytotoxicity CC50”, the CC50 was above 25 µM. Moreover, the half-life in [3] is 96.7 min; in data set [4] (setting [8]), 132 min; in data set [4] (setting [9]), 180 min; in [5] it was above 186 min; in [6] it was 127 min. Further, in [4], the “C 8 h” value is 146 ng/mL. In data set [4] (IV 1 mg/kg), the Vd was 1.7 L/kg. In [4] (IV 1 mg/kg), this compound yielded a clearance of 12.2 mL/min/kg. Besides, in data set [4] (IV 1 mg/kg, PO 10 mg/kg), the bioavailability turned out to be 34.7%. Further, the AUC(0-t) in data set [4] (PO 10 mg/kg) turned out to be 4630 ng·h/mL. Moreover, in [4], the concentration peaked (Cmax) at 930 ng/mL. Also, the response with RSV A2 was half-maximal at 50 nM (EC50).

As for `CCn1cc(C(=O)N[C@H]2N=C(c3ccccc3)c3ccccc3NC2=O)c(-c2ccc(NC3CC3)nc2F)n1` [Example 25, 3-[6-(Cyclopropylamino)-2-fluoropyridin-3-yl]-1-ethyl-N-[(3S)-2-oxo-5-phenyl-1,3-dihydro-1,4-benzodiazepin-3-yl]pyrazole-4-carboxamide], the half-life in data set [1] was 17 min; in data set [2], 46.3 min; in data set [3] it was above 186 min; in data set [4] (setting [8]), 78 min; in data set [4] (setting [9]) it was 162 min; in data set [5] it was 506 min. Besides, the half-life in [6] was 68.1 min; in [7] it was 82.8 min. Also, the CC50 in “Cell cytotoxicity CC50” was above 25 µM. Besides, the “C 8 h” value in data set [4] came to 294 ng/mL. This compound also came in with a volume of distribution (Vd) in data set [4] (IV 1 mg/kg) of 0.9 L/kg. The same compound came in with a clearance in [4] (IV 1 mg/kg) of 15.9 mL/min/kg. This compound also came in with a bioavailability in data set [4] (IV 1 mg/kg, PO 10 mg/kg) of 71.5%. Moreover, the AUC(0-t) in data set [4] (PO 10 mg/kg) amounted to 7470 ng·h/mL. The Cmax in [4] came out at 1150 ng/mL. In the data set on RSV A2, a half-maximal response (EC50) required 49 nM.

Take `CCNc1ccc(-c2c(C(=O)N[C@H]3N=C(c4ccccc4)c4ccccc4NC3=O)cnn2C2CCOCC2)c(F)n1` [Example 42, 5-[6-(Ethylamino)-2-fluoropyridin-3-yl]-1-(oxan-4-yl)-N-[(3S)-2-oxo-5-phenyl-1,3-dihydro-1,4-benzodiazepin-3-yl]pyrazole-4-carboxamide]: the half-life amounted to 480 min in [1]; 85.8 min in [2]; 72.3 min in [3]; 421 min in data set [5]; 100 min in [6]; 194 min in data set [7]. In “Cell cytotoxicity CC50”, the cytotoxic concentration (CC50) is above 25 µM. Besides, the midpoint of the response in the data set on RSV A2, the EC50, lay at 41 nM.
